According to the supplement of paper PMC11451515:

Legend:
Details in all cases: 48 h
P12-Ichikawa [1] = assay: AUC of viability dose-response curve (% viability x log10 dose units); higher = less sensitive
In short: (§1)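 Leukemia cells adapted to each medium (500 or 1000 cells/well, 1536-well plates) were exposed to library compounds in DMSO for 48 h at 37°C at 11 threefold doses, 47 μM to 0.79 nM. Luminescence by CellTiter-Glo One was normalised per plate to DMSO and cell-free wells, then fitted with a four-parameter log-logistic curve on log10 dose. Curves above full viability were scaled and quality-control failures removed before area under the curve was integrated by trapezoidal rule.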

SEM cells [2] = assay: as above
In short: as §1

NOMO1 [3] = assay: as above
In short: as §1

P12-Ichikawa [4] = assay: cell viability relative to DMSO control; higher = less cytotoxic
In short: (§2)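 Viability is a per-plate percentage relative to DMSO wells, with cell-free wells as background. CellTiter-Glo One luminescence was read after 48 h at 37°C on 1536-well plates (5 μl) of NOMO1 or SEM (500 cells/well) or P12-Ichikawa (1000 cells/well) leukemia cells. The cells had been adapted for at least four passages in each medium and pin-dosed with library compounds in DMSO from 47 μM to 0.79 nM in 11 threefold steps.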

SEM cells [5] = assay: as above
In short: as §2

NOMO1 [6] = assay: as above
In short: as §2

COc1ccccc1[C@H](c1cccc2ccccc12)[C@@](C)(C#N)C(=O)N1CCC(c2cccc(C(F)(F)F)c2)CC1
AUC of viability dose-response curve
Details | NOMO1 [3] | P12-Ichikawa [1] | SEM cells [2]
HPLM + 10% dialyzed FBS | 431 | 450 | 435
RPMI 5 mM glucose + 10% FBS | 458 | 425 | 456
RPMI 5 mM glucose + 10% dialyzed FBS | 427 | 432 | 434

cell viability [%]
Details | NOMO1 [6] | P12-Ichikawa [4] | SEM cells [5]
HPLM + 10% dialyzed FBS, 0.000781 µM | 96.4 | 99.7 | 87.3
HPLM + 10% dialyzed FBS, 0.00234 µM | 109 | 109 | 103
HPLM + 10% dialyzed FBS, 0.00702 µM | 101 | 104 | 96.6
HPLM + 10% dialyzed FBS, 0.0211 µM | 104 | 115 | 97.4
HPLM + 10% dialyzed FBS, 0.0632 µM | 115 | 104 | 107
HPLM + 10% dialyzed FBS, 0.19 µM | 102 | 113 | 103
HPLM + 10% dialyzed FBS, 0.569 µM | 102 | 107 | 108
HPLM + 10% dialyzed FBS, 1.71 µM | 93.7 | 107 | 99.2
HPLM + 10% dialyzed FBS, 5.12 µM | 88.6 | 92.7 | 89.3
HPLM + 10% dialyzed FBS, 15.4 µM | 64.3 | 84.5 | 54.4
HPLM + 10% dialyzed FBS, 46.1 µM | 39.9 | 68.8 | 39.7
RPMI 5 mM glucose + 10% FBS, 0.000781 µM | 102 | 108 | 92.3
RPMI 5 mM glucose + 10% FBS, 0.00234 µM | 96 | 115 | 104
RPMI 5 mM glucose + 10% FBS, 0.00702 µM | 101 | 104 | 102
RPMI 5 mM glucose + 10% FBS, 0.0211 µM | 106 | 107 | 107
RPMI 5 mM glucose + 10% FBS, 0.0632 µM | 99.6 | 119 | 102
RPMI 5 mM glucose + 10% FBS, 0.19 µM | 103 | 99.8 | 114
RPMI 5 mM glucose + 10% FBS, 0.569 µM | 99.7 | 107 | 105
RPMI 5 mM glucose + 10% FBS, 1.71 µM | 107 | 92.4 | 119
RPMI 5 mM glucose + 10% FBS, 5.12 µM | 97.6 | 80.3 | 111
RPMI 5 mM glucose + 10% FBS, 15.4 µM | 85.2 | 72.7 | 84.7
RPMI 5 mM glucose + 10% FBS, 46.1 µM | 60.3 | 60.7 | 56
RPMI 5 mM glucose + 10% dialyzed FBS, 0.000781 µM | 100 | 108 | 83.3
RPMI 5 mM glucose + 10% dialyzed FBS, 0.00234 µM | 98.9 | 108 | 91.5
RPMI 5 mM glucose + 10% dialyzed FBS, 0.00702 µM | 98.6 | 117 | 100
RPMI 5 mM glucose + 10% dialyzed FBS, 0.0211 µM | 99.3 | 112 | 99.4
RPMI 5 mM glucose + 10% dialyzed FBS, 0.0632 µM | 104 | 122 | 90.8
RPMI 5 mM glucose + 10% dialyzed FBS, 0.19 µM | 99.9 | 111 | 104
RPMI 5 mM glucose + 10% dialyzed FBS, 0.569 µM | 86.4 | 108 | 102
RPMI 5 mM glucose + 10% dialyzed FBS, 1.71 µM | 86.5 | 112 | 87.8
RPMI 5 mM glucose + 10% dialyzed FBS, 5.12 µM | 83.1 | 88.7 | 93.9
RPMI 5 mM glucose + 10% dialyzed FBS, 15.4 µM | 67.3 | 71.2 | 76.6
RPMI 5 mM glucose + 10% dialyzed FBS, 46.1 µM | 53.1 | 47.9 | 54.9

O=C(O)c1ccc(O)c2ncc(N3CCOCC3)cc12
AUC of viability dose-response curve
Details | NOMO1 [3] | P12-Ichikawa [1] | SEM cells [2]
HPLM + 10% dialyzed FBS | 447 | 452 | 453
RPMI 5 mM glucose + 10% FBS | 417 | 431 | 424
RPMI 5 mM glucose + 10% dialyzed FBS | 454 | 435 | 393

cell viability [%]
Details | NOMO1 [6] | P12-Ichikawa [4] | SEM cells [5]
HPLM + 10% dialyzed FBS, 0.000781 µM | 90.9 | 106 | 101
HPLM + 10% dialyzed FBS, 0.00234 µM | 108 | 105 | 117
HPLM + 10% dialyzed FBS, 0.00702 µM | 99.9 | 100 | 128
HPLM + 10% dialyzed FBS, 0.0211 µM | 103 | 108 | 110
HPLM + 10% dialyzed FBS, 0.0632 µM | 99.3 | 107 | 103
HPLM + 10% dialyzed FBS, 0.19 µM | 101 | 103 | 102
HPLM + 10% dialyzed FBS, 0.569 µM | 109 | 97.2 | 116
HPLM + 10% dialyzed FBS, 1.71 µM | 105 | 99.9 | 99.8
HPLM + 10% dialyzed FBS, 5.12 µM | 97.2 | 98.6 | 73.5
HPLM + 10% dialyzed FBS, 15.4 µM | 83.6 | 95.6 | 99.2
HPLM + 10% dialyzed FBS, 46.1 µM | 18.9 | 7.44 | 11.4
RPMI 5 mM glucose + 10% FBS, 0.000781 µM | 93.9 | 102 | 106
RPMI 5 mM glucose + 10% FBS, 0.00234 µM | 91.1 | 99.1 | 109
RPMI 5 mM glucose + 10% FBS, 0.00702 µM | 92.7 | 96.8 | 109
RPMI 5 mM glucose + 10% FBS, 0.0211 µM | 92.1 | 92.8 | 115
RPMI 5 mM glucose + 10% FBS, 0.0632 µM | 89.4 | 95.7 | 112
RPMI 5 mM glucose + 10% FBS, 0.19 µM | 86.3 | 97.6 | 94.1
RPMI 5 mM glucose + 10% FBS, 0.569 µM | 87.5 | 96.6 | 106
RPMI 5 mM glucose + 10% FBS, 1.71 µM | 86.2 | 94.2 | 99.3
RPMI 5 mM glucose + 10% FBS, 5.12 µM | 85.4 | 87.8 | 65.9
RPMI 5 mM glucose + 10% FBS, 15.4 µM | 79.3 | 85.2 | 84
RPMI 5 mM glucose + 10% FBS, 46.1 µM | 73.8 | 9.83 | 7.59
RPMI 5 mM glucose + 10% dialyzed FBS, 0.000781 µM | 98.1 | 98.5 | 94.8
RPMI 5 mM glucose + 10% dialyzed FBS, 0.00234 µM | 101 | 95.2 | 98.4
RPMI 5 mM glucose + 10% dialyzed FBS, 0.00702 µM | 111 | 104 | 96
RPMI 5 mM glucose + 10% dialyzed FBS, 0.0211 µM | 104 | 90.9 | 99.6
RPMI 5 mM glucose + 10% dialyzed FBS, 0.0632 µM | 107 | 98 | 95
RPMI 5 mM glucose + 10% dialyzed FBS, 0.19 µM | 94.2 | 97.7 | 86.2
RPMI 5 mM glucose + 10% dialyzed FBS, 0.569 µM | 126 | 105 | 99
RPMI 5 mM glucose + 10% dialyzed FBS, 1.71 µM | 102 | 102 | 87.4
RPMI 5 mM glucose + 10% dialyzed FBS, 5.12 µM | 91.2 | 81.8 | 46.4
RPMI 5 mM glucose + 10% dialyzed FBS, 15.4 µM | 104 | 84.7 | 68.9
RPMI 5 mM glucose + 10% dialyzed FBS, 46.1 µM | 81.5 | 5.31 | 7.27
